Assay results: article PMC10412597, “Small molecule branched-chain ketoacid dehydrogenase kinase (BDK) inhibitors with opposing effects on BDK protein levels” (Nature Communications, 2023)

Experiments:
Set-up in all cases: Invitrogen kinase panel, per cent inhibition of kinase activity
Details in all cases: 10 µM, inhibitor
INSR = INSR (Homo sapiens, UniProt P06213)
Experimental: (§1) To discover a potent and selective BDK inhibitor, a subset of the Pfizer compound collection was screened. […] Off target activity was assessed in both CEREP and kinase panels (Supplementary Tables 2, 3).

AURKB = AURKB (Homo sapiens, UniProt Q96GD4)
Experimental: as §1

PRKCA = target: T1, PRKCA (Homo sapiens, UniProt P17252)
T1 construct: 1 mM ATP
Experimental: as §1

MARK1 = MARK1 (Homo sapiens, UniProt Q9P0L2)
Experimental: as §1

PIK3CG = PIK3CG (Homo sapiens, UniProt P48736)
Experimental: as §1

[1] = target: T2, Mitogen-Activated Protein Kinase Kinase Kinase Kinase 4 (MAPK4K4) (Homo sapiens, UniProt O95819)
T2 construct: gene MAP4K4
Experimental: as §1

Misshapen-like Kinase 1 = target: T3, Misshapen-like Kinase 1 (Homo sapiens, UniProt Q8N4C8)
T3 construct: gene MINK1
Experimental: as §1

PIM-1 = target: T4, PIM-1 (Homo sapiens, UniProt P11309)
T4 construct: gene PIM1
Experimental: as §1

CSNK2A2 = CSNK2A2 (Homo sapiens, UniProt P19784)
Experimental: as §1

MAPKAPK5 = MAPKAPK5 (Homo sapiens, UniProt Q8IW41)
Experimental: as §1

CAMK1 = CAMK1 (Homo sapiens, UniProt Q14012)
Experimental: as §1

SRPK1 = SRPK1 (Homo sapiens, UniProt Q96SB4)
Experimental: as §1

MAPK1 = MAPK1 (Homo sapiens, UniProt P28482)
Experimental: as §1

FGFR1 = FGFR1 (Homo sapiens, UniProt P11362)
Experimental: as §1

Rsk1 = target: T5, Rsk1 (Homo sapiens, UniProt Q15418)
T5 construct: gene RPS6KA1
Experimental: as §1

TAOK2 = target: T6, TAOK2 (Homo sapiens, UniProt Q9UL54)
T6 sequence (Q9UL54 1-1235): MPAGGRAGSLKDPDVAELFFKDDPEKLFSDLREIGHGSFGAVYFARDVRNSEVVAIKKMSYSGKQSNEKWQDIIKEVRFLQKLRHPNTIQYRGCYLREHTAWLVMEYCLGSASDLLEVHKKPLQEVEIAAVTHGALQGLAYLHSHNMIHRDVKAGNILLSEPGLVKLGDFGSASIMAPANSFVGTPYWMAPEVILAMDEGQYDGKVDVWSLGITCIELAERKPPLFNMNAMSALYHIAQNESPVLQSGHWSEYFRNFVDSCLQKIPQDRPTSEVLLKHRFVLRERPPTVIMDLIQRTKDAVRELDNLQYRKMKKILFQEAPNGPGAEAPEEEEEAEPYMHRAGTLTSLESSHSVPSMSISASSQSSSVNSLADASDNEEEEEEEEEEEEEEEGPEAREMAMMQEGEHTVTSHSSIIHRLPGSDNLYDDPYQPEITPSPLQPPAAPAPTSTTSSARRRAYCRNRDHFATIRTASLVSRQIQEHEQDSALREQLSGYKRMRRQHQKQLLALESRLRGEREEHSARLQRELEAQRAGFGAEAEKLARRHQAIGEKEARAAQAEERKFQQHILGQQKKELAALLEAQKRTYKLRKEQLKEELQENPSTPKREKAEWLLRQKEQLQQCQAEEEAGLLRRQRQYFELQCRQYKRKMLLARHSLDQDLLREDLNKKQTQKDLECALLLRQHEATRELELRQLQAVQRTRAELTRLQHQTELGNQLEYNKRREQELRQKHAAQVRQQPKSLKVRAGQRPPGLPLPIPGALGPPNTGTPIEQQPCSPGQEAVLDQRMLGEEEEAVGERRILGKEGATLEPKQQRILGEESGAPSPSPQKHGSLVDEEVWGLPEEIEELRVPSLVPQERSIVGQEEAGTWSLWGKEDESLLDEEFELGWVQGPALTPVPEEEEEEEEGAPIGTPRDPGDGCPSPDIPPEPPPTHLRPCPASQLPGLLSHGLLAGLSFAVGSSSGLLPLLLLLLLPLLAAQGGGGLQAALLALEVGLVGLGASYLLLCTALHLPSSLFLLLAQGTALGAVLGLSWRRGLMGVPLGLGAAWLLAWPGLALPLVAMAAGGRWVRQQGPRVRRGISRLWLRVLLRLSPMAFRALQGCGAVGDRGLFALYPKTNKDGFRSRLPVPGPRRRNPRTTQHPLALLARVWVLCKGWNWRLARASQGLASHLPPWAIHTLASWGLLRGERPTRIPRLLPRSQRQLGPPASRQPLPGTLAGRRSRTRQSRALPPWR
Experimental: as §1

FGFR1, sequence (P11362 whole entry): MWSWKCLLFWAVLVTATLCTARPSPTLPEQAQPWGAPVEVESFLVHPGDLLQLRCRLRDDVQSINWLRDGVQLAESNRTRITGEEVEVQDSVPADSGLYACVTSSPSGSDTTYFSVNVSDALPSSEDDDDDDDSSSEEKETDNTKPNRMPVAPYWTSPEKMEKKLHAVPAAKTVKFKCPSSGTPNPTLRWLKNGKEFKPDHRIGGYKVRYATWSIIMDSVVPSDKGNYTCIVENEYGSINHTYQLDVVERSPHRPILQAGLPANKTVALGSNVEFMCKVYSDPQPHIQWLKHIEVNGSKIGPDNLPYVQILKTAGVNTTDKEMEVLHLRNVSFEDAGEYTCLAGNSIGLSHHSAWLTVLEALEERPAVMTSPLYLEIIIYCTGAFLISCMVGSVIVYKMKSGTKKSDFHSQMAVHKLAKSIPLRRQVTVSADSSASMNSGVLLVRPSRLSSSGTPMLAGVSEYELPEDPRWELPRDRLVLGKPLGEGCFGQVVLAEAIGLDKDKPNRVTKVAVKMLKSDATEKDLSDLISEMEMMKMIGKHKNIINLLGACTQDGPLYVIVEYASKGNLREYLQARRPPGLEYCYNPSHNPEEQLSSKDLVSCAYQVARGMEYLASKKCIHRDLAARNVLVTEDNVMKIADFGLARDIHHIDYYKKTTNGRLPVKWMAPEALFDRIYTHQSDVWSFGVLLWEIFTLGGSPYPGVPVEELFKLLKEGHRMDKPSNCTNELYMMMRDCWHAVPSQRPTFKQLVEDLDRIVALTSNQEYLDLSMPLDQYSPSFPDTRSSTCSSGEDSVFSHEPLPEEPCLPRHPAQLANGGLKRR
MARK1, sequence (Q9P0L2 whole entry): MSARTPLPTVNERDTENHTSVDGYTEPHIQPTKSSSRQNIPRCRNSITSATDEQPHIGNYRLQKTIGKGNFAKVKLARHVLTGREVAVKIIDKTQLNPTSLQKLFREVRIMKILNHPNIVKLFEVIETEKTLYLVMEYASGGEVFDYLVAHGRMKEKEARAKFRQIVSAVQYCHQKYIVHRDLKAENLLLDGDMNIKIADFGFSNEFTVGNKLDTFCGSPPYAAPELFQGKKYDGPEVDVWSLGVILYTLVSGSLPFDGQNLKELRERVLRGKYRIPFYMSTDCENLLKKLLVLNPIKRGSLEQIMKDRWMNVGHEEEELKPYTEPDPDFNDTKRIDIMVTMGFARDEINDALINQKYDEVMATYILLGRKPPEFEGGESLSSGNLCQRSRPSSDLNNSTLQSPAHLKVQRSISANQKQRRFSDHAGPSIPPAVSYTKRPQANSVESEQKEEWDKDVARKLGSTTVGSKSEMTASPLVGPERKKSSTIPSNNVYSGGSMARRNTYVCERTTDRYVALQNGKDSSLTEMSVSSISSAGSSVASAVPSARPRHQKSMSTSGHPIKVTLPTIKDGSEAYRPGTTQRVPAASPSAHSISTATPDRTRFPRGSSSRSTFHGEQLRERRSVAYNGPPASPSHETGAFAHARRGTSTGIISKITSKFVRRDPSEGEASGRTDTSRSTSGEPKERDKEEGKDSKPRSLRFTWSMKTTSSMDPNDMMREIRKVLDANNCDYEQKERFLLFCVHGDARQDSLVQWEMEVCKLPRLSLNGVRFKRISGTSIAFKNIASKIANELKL
MAPK1, sequence (P28482 whole entry): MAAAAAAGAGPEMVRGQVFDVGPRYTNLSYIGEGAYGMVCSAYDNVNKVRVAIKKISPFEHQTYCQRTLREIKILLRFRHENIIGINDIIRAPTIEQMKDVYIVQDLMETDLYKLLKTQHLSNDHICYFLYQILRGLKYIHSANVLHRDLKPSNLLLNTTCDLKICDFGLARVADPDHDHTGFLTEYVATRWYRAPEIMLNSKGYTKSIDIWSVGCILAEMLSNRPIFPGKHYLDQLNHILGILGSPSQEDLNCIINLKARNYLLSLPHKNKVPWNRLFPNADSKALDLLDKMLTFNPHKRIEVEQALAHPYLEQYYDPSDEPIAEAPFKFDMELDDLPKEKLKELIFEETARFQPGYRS
T2 sequence (O95819 whole entry): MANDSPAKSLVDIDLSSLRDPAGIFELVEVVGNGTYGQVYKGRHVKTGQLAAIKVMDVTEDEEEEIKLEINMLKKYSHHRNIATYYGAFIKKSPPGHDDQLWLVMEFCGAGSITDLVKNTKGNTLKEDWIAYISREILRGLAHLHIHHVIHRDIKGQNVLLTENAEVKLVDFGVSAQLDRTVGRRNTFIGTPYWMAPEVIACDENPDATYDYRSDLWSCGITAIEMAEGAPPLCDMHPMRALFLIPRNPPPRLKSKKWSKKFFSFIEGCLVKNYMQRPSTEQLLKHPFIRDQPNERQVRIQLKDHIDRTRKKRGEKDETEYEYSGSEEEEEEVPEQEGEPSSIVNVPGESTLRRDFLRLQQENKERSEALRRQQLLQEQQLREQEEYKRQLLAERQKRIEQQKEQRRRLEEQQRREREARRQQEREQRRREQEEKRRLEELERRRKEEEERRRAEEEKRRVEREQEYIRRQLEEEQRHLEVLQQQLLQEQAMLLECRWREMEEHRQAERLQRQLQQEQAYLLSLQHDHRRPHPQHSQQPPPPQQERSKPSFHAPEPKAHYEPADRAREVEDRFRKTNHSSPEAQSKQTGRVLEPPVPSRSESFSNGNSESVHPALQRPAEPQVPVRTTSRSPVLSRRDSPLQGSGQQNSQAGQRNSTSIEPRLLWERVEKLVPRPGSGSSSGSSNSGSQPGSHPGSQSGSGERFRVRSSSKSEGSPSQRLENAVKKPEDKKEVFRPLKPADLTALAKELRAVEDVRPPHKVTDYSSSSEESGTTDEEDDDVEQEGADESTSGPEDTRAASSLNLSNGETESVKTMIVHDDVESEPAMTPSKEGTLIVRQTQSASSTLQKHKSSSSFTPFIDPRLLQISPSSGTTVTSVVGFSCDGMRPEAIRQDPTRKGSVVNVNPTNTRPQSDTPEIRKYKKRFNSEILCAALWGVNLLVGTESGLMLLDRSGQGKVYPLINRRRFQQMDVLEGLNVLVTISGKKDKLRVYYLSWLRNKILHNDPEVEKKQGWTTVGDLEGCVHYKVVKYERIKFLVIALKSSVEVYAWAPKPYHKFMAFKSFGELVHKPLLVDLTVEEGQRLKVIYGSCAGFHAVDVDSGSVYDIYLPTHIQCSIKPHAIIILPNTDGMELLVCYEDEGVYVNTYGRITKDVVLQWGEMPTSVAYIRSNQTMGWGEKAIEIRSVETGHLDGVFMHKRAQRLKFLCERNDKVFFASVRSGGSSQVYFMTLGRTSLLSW
INSR, sequence (P06213 whole entry): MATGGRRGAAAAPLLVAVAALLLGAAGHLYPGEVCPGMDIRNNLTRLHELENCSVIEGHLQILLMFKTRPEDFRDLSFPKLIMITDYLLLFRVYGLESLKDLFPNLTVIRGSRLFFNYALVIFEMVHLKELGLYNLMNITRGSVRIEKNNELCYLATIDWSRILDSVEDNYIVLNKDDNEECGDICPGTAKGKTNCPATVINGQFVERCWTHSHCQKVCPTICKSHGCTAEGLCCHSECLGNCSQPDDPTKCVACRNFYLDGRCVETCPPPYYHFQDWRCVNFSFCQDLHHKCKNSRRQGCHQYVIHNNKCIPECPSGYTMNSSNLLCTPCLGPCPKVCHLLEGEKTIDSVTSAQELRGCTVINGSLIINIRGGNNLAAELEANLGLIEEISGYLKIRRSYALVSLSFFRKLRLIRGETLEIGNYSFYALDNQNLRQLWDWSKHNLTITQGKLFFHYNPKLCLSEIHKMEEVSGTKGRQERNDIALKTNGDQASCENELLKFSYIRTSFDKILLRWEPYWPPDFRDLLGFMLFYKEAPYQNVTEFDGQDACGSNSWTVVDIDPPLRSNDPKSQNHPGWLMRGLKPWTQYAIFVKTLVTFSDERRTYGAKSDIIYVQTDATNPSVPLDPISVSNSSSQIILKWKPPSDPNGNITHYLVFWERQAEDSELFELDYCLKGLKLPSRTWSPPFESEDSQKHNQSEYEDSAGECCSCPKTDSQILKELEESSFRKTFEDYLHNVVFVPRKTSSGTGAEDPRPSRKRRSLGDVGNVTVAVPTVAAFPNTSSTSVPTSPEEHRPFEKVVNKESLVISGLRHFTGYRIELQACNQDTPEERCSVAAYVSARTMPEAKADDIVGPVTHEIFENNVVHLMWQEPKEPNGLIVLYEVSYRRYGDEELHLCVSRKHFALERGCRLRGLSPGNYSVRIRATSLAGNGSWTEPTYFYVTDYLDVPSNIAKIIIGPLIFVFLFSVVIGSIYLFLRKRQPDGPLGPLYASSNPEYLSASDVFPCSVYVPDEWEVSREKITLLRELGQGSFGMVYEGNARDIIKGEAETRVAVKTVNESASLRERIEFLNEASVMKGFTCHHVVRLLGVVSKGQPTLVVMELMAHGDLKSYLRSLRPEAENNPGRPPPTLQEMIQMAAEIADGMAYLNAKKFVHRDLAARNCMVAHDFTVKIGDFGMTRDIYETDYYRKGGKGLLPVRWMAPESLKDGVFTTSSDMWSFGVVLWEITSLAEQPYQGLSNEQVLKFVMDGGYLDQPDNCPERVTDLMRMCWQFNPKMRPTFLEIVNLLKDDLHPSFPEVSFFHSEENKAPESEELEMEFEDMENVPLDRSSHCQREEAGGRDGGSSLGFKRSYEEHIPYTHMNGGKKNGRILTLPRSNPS
CSNK2A2, sequence (P19784 whole entry): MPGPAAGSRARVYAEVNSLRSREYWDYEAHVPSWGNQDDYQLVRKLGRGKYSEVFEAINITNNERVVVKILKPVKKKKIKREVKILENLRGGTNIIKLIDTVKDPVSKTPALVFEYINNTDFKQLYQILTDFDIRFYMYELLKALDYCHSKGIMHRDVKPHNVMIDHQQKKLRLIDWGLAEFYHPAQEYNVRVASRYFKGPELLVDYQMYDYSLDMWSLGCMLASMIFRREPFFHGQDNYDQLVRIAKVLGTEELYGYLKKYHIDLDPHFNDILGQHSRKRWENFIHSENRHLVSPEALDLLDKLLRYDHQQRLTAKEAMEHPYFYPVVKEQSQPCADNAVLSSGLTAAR

`CCC1(COc2ccc(-c3csc(-c4ccccc4C(=O)O)n3)cn2)CC1` [PF-07247685, 2-(4-{6-[(1-ethylcyclopropyl)methoxy]pyridin-3-yl}-1,3-thiazol-2-yl)benzoic acid] was tested, and the “ATP = 1 mM % Inhibition PF-07247685” value (INSR) was -0.4%, the “ATP = Km % Inhibition PF-07247685” value (INSR) was 3.4% and the “ATP = Km % Inhibition PF-07247685” value (AURKB) was 17.3%. The “ATP = Km % Inhibition PF-07247685” value (PRKCA) was 14.8%, the “ATP = 1 mM % Inhibition PF-07247685” value (MARK1) was 7.5% and the “ATP = Km % Inhibition PF-07247685” value (MARK1) was 4.3%. The “ATP = Km % Inhibition PF-07247685” value (PIK3CG) was -4.6%, the “ATP = 1 mM % Inhibition PF-07247685” value [1] was 3.2% and the “ATP = Km % Inhibition PF-07247685” value [1] was 25.5%. The “ATP = Km % Inhibition PF-07247685” value (Misshapen-like Kinase 1) was 21.9%, the “ATP = Km % Inhibition PF-07247685” value (PIM-1) was -2.6% and the “ATP = 1 mM % Inhibition PF-07247685” value (CSNK2A2) was 1.9%. The “ATP = Km % Inhibition PF-07247685” value (CSNK2A2) was 7.5%, the “ATP = Km % Inhibition PF-07247685” value (MAPKAPK5) was 2.3% and the “ATP = 100 uM % Inhibition PF-07247685” value (CAMK1) was -5.1%. The “ATP = Km % Inhibition PF-07247685” value (SRPK1) was 12.6%, the “ATP = 1 mM % Inhibition PF-07247685” value (MAPK1) was 2.4% and the “ATP = Km % Inhibition PF-07247685” value (MAPK1) was 7.0%. The “ATP = 1 mM % Inhibition PF-07247685” value (FGFR1) was 2.1%, the “ATP = Km % Inhibition PF-07247685” value (FGFR1) was 8.8% and the “ATP = Km % Inhibition PF-07247685” value (Rsk1) was 2.4%. The “ATP = 1 mM % Inhibition PF-07247685” value (TAOK2) was -1.8% and the “ATP = Km % Inhibition PF-07247685” value (TAOK2) was -4.7%.
For `O=C(O)c1sc2cc(F)sc2c1Cl` [PF-07208254, 3-chloro-5-fluorothieno[3,2-b]thiophene-2-carboxylic acid], the “ATP = 1 mM % Inhibition PF-07208254” value (INSR) was 0.0%, the “ATP = Km % Inhibition PF-07208254” value (INSR) was 3.1% and the “ATP = Km % Inhibition PF-07208254” value (AURKB) was 3.0%. For the same compound, the “ATP = Km % Inhibition PF-07208254” value (PRKCA) was 3.8%, the “ATP = 1 mM % Inhibition PF-07208254” value (MARK1) was 8.4% and the “ATP = Km % Inhibition PF-07208254” value (MARK1) was 2.1%. The “ATP = Km % Inhibition PF-07208254” value (PIK3CG) was 4.8%, the “ATP = 1 mM % Inhibition PF-07208254” value [1] was -7.5% and the “ATP = Km % Inhibition PF-07208254” value [1] was 11.9%. The “ATP = Km % Inhibition PF-07208254” value (Misshapen-like Kinase 1) was -3.3%, the “ATP = Km % Inhibition PF-07208254” value (PIM-1) was 44.5% and the “ATP = 1 mM % Inhibition PF-07208254” value (CSNK2A2) was 7.3%. The “ATP = Km % Inhibition PF-07208254” value (CSNK2A2) was 24.5%, the “ATP = Km % Inhibition PF-07208254” value (MAPKAPK5) was 6.6% and the “ATP = 100 uM % Inhibition PF-07208254” value (CAMK1) was -7.9%. For the same compound, the “ATP = Km % Inhibition PF-07208254” value (SRPK1) was 2.8%, the “ATP = 1 mM % Inhibition PF-07208254” value (MAPK1) was 2.8% and the “ATP = Km % Inhibition PF-07208254” value (MAPK1) was 9.4%. For the same compound, the “ATP = 1 mM % Inhibition PF-07208254” value (FGFR1) was -0.5%, the “ATP = Km % Inhibition PF-07208254” value (FGFR1) was -0.5% and the “ATP = Km % Inhibition PF-07208254” value (Rsk1) was 3.3%. The “ATP = 1 mM % Inhibition PF-07208254” value (TAOK2) was 1.4% and the “ATP = Km % Inhibition PF-07208254” value (TAOK2) was -2.5%.
